According to PubChem BioAssay (NCI):
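All cell lines were grown in 96-well plates and treated with compound for 48 hours. At the GI50, growth is halved. The concentration for full growth arrest is given as TGI.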

Key:
Test in all cases: NCI-60 cell line screen, 48 h; in the data active = GI50 below about 0.43 µM; inactive = the rest
NCI-H226 lung = test system: NCI-H226 lung
IGROV1 ovarian = test system: IGROV1 ovarian
SR leukemia = test system: SR leukemia
CCRF-CEM leukemia = test system: CCRF-CEM leukemia
M14 melanoma = test system: M14 melanoma
RXF 393 renal = test system: RXF 393 renal
MDA-MB-435 = test system: MDA-MB-435
NCI-H460 lung = test system: NCI-H460 lung
786-0 renal = test system: 786-0 renal
RPMI-8226 leukemia = test system: RPMI-8226 leukemia
HT29 colon = test system: HT29 colon
SNB-19 CNS = test system: SNB-19 CNS
A549 NSCLC = test system: A549 NSCLC
U251 CNS = test system: U251 CNS
SNB-75 CNS = test system: SNB-75 CNS
TK-10 renal = test system: TK-10 renal
MALME-3M melanoma = test system: MALME-3M melanoma
NCI-H522 lung = test system: NCI-H522 lung
COLO 205 colon = test system: COLO 205 colon
HCT-116 colon = test system: HCT-116 colon
HOP-92 NSCLC = test system: HOP-92 NSCLC
SW-620 colon = test system: SW-620 colon
SK-OV-3 ovarian = test system: SK-OV-3 ovarian
K-562 leukemia = test system: K-562 leukemia
MCF7 breast = test system: MCF7 breast
HL-60(TB) leukemia = test system: HL-60(TB) leukemia
LOX IMVI melanoma = test system: LOX IMVI melanoma
A498 renal = test system: A498 renal
HCT-15 colon = test system: HCT-15 colon
SF-539 CNS = test system: SF-539 CNS
T-47D breast = test system: T-47D breast
SF-295 CNS = test system: SF-295 CNS
MOLT-4 leukemia = test system: MOLT-4 leukemia
NCI-H23 lung = test system: NCI-H23 lung
KM12 colon = test system: KM12 colon
DU-145 prostate = test system: DU-145 prostate
PC-3 prostate = test system: PC-3 prostate
EKVX NSCLC = test system: EKVX NSCLC
OVCAR-5 ovarian = test system: OVCAR-5 ovarian
HS 578T breast = test system: HS 578T breast
HOP-62 NSCLC = test system: HOP-62 NSCLC
UACC-257 melanoma = test system: UACC-257 melanoma
SK-MEL-5 melanoma = test system: SK-MEL-5 melanoma
HCC-2998 colon = test system: HCC-2998 colon
MDA-MB-231 breast = test system: MDA-MB-231 breast
SN12C renal = test system: SN12C renal
SK-MEL-28 melanoma = test system: SK-MEL-28 melanoma
NCI/ADR-RES ovarian = test system: NCI/ADR-RES ovarian
OVCAR-4 ovarian = test system: OVCAR-4 ovarian
SF-268 CNS = test system: SF-268 CNS
OVCAR-8 ovarian = test system: OVCAR-8 ovarian
UO-31 renal = test system: UO-31 renal
ACHN renal = test system: ACHN renal

COc1ccc(C(=O)/C=C/c2cccc(Nc3ccnc4cc(Cl)ccc34)c2)cc1
6.3 µM: TGI (MALME-3M melanoma)
4.27 µM: TGI (786-0 renal)
4.3 µM: TGI (SF-539 CNS)
4.82 µM: TGI (U251 CNS)
12.2 µM: TGI (HCT-116 colon)
7.98 µM: TGI (SK-OV-3 ovarian)
4.12 µM: TGI (SNB-75 CNS)
3.99 µM: TGI (HOP-62 NSCLC)
> 100 µM: TGI (NCI-H226 lung) | TGI (CCRF-CEM leukemia) | TGI (M14 melanoma) | TGI (MDA-MB-435) | TGI (NCI-H460 lung) | TGI (HT29 colon) | TGI (SNB-19 CNS) | TGI (A549 NSCLC) | TGI (NCI-H522 lung) | TGI (COLO 205 colon) | TGI (MCF7 breast) | TGI (HL-60(TB) leukemia) | TGI (HCT-15 colon) | TGI (MOLT-4 leukemia) | TGI (NCI-H23 lung) | TGI (KM12 colon) | TGI (DU-145 prostate) | TGI (PC-3 prostate) | TGI (EKVX NSCLC) | TGI (OVCAR-5 ovarian) | TGI (HS 578T breast)
20 µM: TGI (SW-620 colon)
7.08 µM: TGI (HOP-92 NSCLC)
18.1 µM: TGI (K-562 leukemia)
3.77 µM: TGI (SR leukemia)
55.3 µM: TGI (A498 renal)
4.59 µM: TGI (TK-10 renal)
inactive: GI50 (NCI-H226 lung) 1.78 µM | GI50 (IGROV1 ovarian) 1.44 µM | GI50 (SR leukemia) 0.491 µM | GI50 (CCRF-CEM leukemia) 2.88 µM | GI50 (M14 melanoma) 1.6 µM | GI50 (RXF 393 renal) 1.82 µM | GI50 (MDA-MB-435) 2.13 µM | GI50 (NCI-H460 lung) 2.23 µM | GI50 (786-0 renal) 1.48 µM | GI50 (RPMI-8226 leukemia) 0.572 µM | GI50 (HT29 colon) 1.64 µM | GI50 (SNB-19 CNS) 2.26 µM | GI50 (A549 NSCLC) 2.78 µM | GI50 (U251 CNS) 1.74 µM | GI50 (SNB-75 CNS) 1.51 µM | GI50 (TK-10 renal) 1.64 µM | GI50 (MALME-3M melanoma) 1.79 µM | GI50 (NCI-H522 lung) 1.88 µM | GI50 (COLO 205 colon) 3.85 µM | GI50 (HCT-116 colon) 0.844 µM | GI50 (HOP-92 NSCLC) 1.09 µM | GI50 (SW-620 colon) 1.98 µM | GI50 (SK-OV-3 ovarian) 2.22 µM | GI50 (K-562 leukemia) 1.64 µM | GI50 (MCF7 breast) 1.82 µM | GI50 (HL-60(TB) leukemia) 2.98 µM | GI50 (LOX IMVI melanoma) 1.58 µM | GI50 (A498 renal) 3 µM | GI50 (HCT-15 colon) 2.04 µM | GI50 (SF-539 CNS) 1.7 µM | GI50 (T-47D breast) 0.655 µM | GI50 (SF-295 CNS) 0.694 µM | GI50 (MOLT-4 leukemia) 2.9 µM | GI50 (NCI-H23 lung) 1.49 µM | GI50 (KM12 colon) 2.45 µM | GI50 (DU-145 prostate) 2.45 µM | GI50 (PC-3 prostate) 2.51 µM | GI50 (EKVX NSCLC) 1.75 µM | GI50 (OVCAR-5 ovarian) 2.6 µM | GI50 (HS 578T breast) 3.18 µM | GI50 (HOP-62 NSCLC) 1.44 µM
6.53 µM: TGI (IGROV1 ovarian)
11.7 µM: TGI (LOX IMVI melanoma)
13.8 µM: TGI (RPMI-8226 leukemia)
5.17 µM: TGI (RXF 393 renal)
16.3 µM: TGI (SF-295 CNS)
4.64 µM: TGI (T-47D breast)

[O-]c1ccccc1/C=N/C(/N=C/c1ccccc1[O-])c1ccccc1O.[O-]c1ccccc1/C=N/C(/N=C/c1ccccc1[O-])c1ccccc1O.[Zr+4]
98.7 µM: TGI (UO-31 renal)
61.1 µM: TGI (SNB-75 CNS)
inactive: GI50 (UACC-257 melanoma) 33.4 µM | GI50 (IGROV1 ovarian) 56.4 µM | GI50 (M14 melanoma) 46.6 µM | GI50 (MDA-MB-435) 28.2 µM | GI50 (NCI-H460 lung) 34 µM | GI50 (786-0 renal) 41.6 µM | GI50 (RPMI-8226 leukemia) 24.5 µM | GI50 (HT29 colon) 42 µM | GI50 (SK-MEL-5 melanoma) 22.4 µM | GI50 (SNB-19 CNS) 13.1 µM | GI50 (A549 NSCLC) 40 µM | GI50 (U251 CNS) 36.7 µM | GI50 (SNB-75 CNS) 3.8 µM | GI50 (TK-10 renal) 43.6 µM | GI50 (NCI-H522 lung) 10.9 µM | GI50 (HCC-2998 colon) 34.7 µM | GI50 (MDA-MB-231 breast) 58.2 µM | GI50 (HCT-116 colon) 40.8 µM | GI50 (SN12C renal) 57.3 µM | GI50 (SK-MEL-28 melanoma) 17.1 µM | GI50 (NCI/ADR-RES ovarian) > 100 µM | GI50 (SW-620 colon) 26.6 µM | GI50 (SK-OV-3 ovarian) 23.1 µM | GI50 (K-562 leukemia) 44.3 µM | GI50 (OVCAR-4 ovarian) 26.1 µM | GI50 (MCF7 breast) 35.9 µM | GI50 (HL-60(TB) leukemia) 30.6 µM | GI50 (HCT-15 colon) 50.3 µM | GI50 (SF-268 CNS) 28 µM | GI50 (OVCAR-8 ovarian) 26.7 µM | GI50 (SF-539 CNS) 17.8 µM | GI50 (T-47D breast) 28.3 µM | GI50 (SF-295 CNS) 31.8 µM | GI50 (UO-31 renal) 14.4 µM | GI50 (MOLT-4 leukemia) 25.2 µM | GI50 (KM12 colon) 38.6 µM | GI50 (ACHN renal) 36.1 µM | GI50 (PC-3 prostate) 50.9 µM | GI50 (EKVX NSCLC) 46.1 µM | GI50 (OVCAR-5 ovarian) 30 µM | GI50 (HS 578T breast) 12.5 µM | GI50 (HOP-62 NSCLC) 34.2 µM
60 µM: TGI (HS 578T breast)
78.2 µM: TGI (SK-MEL-28 melanoma)
> 100 µM: TGI (UACC-257 melanoma) | TGI (IGROV1 ovarian) | TGI (M14 melanoma) | TGI (MDA-MB-435) | TGI (NCI-H460 lung) | TGI (786-0 renal) | TGI (RPMI-8226 leukemia) | TGI (HT29 colon) | TGI (SK-MEL-5 melanoma) | TGI (SNB-19 CNS) | TGI (A549 NSCLC) | TGI (U251 CNS) | TGI (TK-10 renal) | TGI (HCC-2998 colon) | TGI (MDA-MB-231 breast) | TGI (HCT-116 colon) | TGI (SN12C renal) | TGI (NCI/ADR-RES ovarian) | TGI (SW-620 colon) | TGI (SK-OV-3 ovarian) | TGI (K-562 leukemia) | TGI (OVCAR-4 ovarian) | TGI (MCF7 breast) | TGI (HL-60(TB) leukemia) | TGI (HCT-15 colon) | TGI (SF-268 CNS) | TGI (OVCAR-8 ovarian) | TGI (SF-539 CNS) | TGI (T-47D breast) | TGI (SF-295 CNS) | TGI (MOLT-4 leukemia) | TGI (KM12 colon) | TGI (ACHN renal) | TGI (PC-3 prostate) | TGI (EKVX NSCLC) | TGI (OVCAR-5 ovarian) | TGI (HOP-62 NSCLC)
65.3 µM: TGI (NCI-H522 lung)
